{"source": "patent US7943173B2", "about": "“Pharmaceutical combinations of oxycodone and naloxone” (Purdue Pharma L.P., priority 2001, dated 2011)", "key": {"[1]": {"test": "Example 8: adverse events", "type": "in vivo, human", "experimental": "There were no deaths or serious adverse events. No subjects discontinued because of adverse events. The majority of drug-related adverse events occurred when subjects were dosed with Talwin® Nx. These included nausea, vomiting, dizziness, and headache. One subject withdrew consent due to a schedule conflict.\nEleven of 18 subjects experienced a total of 25 adverse events, none serious. Seven of these subjects experienced adverse events described as possibly, probably, or definitely related to the study medication. Overall, adverse events were more frequently reported in subjects receiving Talwin® Nx, consistent with expected adverse events related to pentazocine. All subjects recovered from all adverse events. No action (e.g., discontinuation) was taken with regard to the study drug."}, "clinical [2]": {"test": "clinical", "conditions": "both, human, plasma; for AUC(0-t): AUCt; for AUC(0-t) / Cmax / Tmax: plasma naloxone", "method": "In Example 8, a single-center, open-label, randomized, 4-period, 4-sequence, 4-treatment crossover study in 18 normal, healthy, young adult, male and female subjects under fasted conditions was conducted. […] Subjects were randomly assigned to four sequences with periods consisting of the following: • Period 1 was Days 1-8 (from the time of the first dose until the time of the second dose), • Period 2 was Days 8-15 (from the time of the second dose until the third dose), • Period 3 was Days 15-22 (from the third dose until the fourth dose), and • Period 4 was Days 22 (from the time of the last dose until the end of the study).\nDosing took place on Days 1, 8, 15, and 22. For the duration of the study, subjects were instructed not to engage in heavy exercise.\nTalwin® Nx was administered with 8 ounces of water, which the subjects drank completely. Afterwards, mouth inspections were done to ensure that each subject swallowed the tablet.\nFollowing the single oral dose of naloxone, subjects drank two additional 75 ml rinses of water, for a total volume of 225 ml. For divided doses (also 0.02 mg/ml), the first dose was followed by two 94 ml rinses of water, and subsequent doses were followed by two 75 ml rinses of water.\nIntravenous naloxone was administered by IV push. Following IV naloxone, subjects were observed by staff members continuously for at least 20 minutes.\nEach subject received each treatment one time. Each treatment followed an overnight fast (excluding water) of at least 10 hours, and after dosing, the subjects fasted for an additional 4 hours. Except for the days of dosings, there were no food restrictions. While subjects were confined to the clinical unit all meals were served at standardized times, and the content was standardized throughout the study and between subjects. Meal records were maintained, including content. No caffeine or xanthine-containing beverages were served while the subjects were in the clinical facility."}, "clinical [3]": {"test": "clinical", "conditions": "both, human, plasma, oral", "method": "Up to 96 subjects were to be enrolled in order to complete a minimum of 48 subjects who were evaluable for pharmacokinetics. […] Subjects successfully completing the Narcan® challenge were randomly assigned to 1 of 2 crossover treatment sequences (reference to test or test to reference) with a 5-day washout period separating dosing in the 2 periods. Subjects were confined to the study facility continuously from Day-1 until Day 10. […] All doses were administered with 8 ounces of water after an overnight fast (excluding water). […] Plasma concentrations of oxycodone and naloxone (as applicable) were determined, and pharmacokinetic metrics were calculated and analyzed. […] For the purpose of statistical analyses, Period 1 was defined as the time from administration of the first dose (Day 2) to just prior to administration of the second dose (Day 7). Period 2 was defined as the time from administration of the second dose (Day 7) to the time of the 72-hour postdose blood collection on Day 10."}, "[4]": {"conditions": "conclusions of the study, treatment not named"}, "[5]": {"conditions": "iv, 0.5 mg, 0.5 mg IV naloxone HCl, arithmetic mean (SD)"}, "[6]": {"conditions": "po, 1.5 mg, 1.5 mg naloxone HCl oral divided doses, arithmetic mean (SD)"}, "[7]": {"conditions": "po, 1.5 mg, 1.5 mg naloxone HCl single oral dose, 18 subjects, arithmetic mean (SD)"}}, "note": "Counter-ions that a name gives are not always drawn. Marks after values point to notes of the source that are not given here."}
{"compound": "C=CCN1CC[C@]23c4c5ccc(O)c4O[C@H]2C(=O)CC[C@@]3(O)[C@H]1C5", "note": "[Naloxone HCl, naloxone hydrochloride]", "values": [{"measurement": "adverse events considered possibly, probably, or definitely related to study drug", "setting": "[1]; 0.5 mg intravenous naloxone", "value": "nausea possibly related"}, {"measurement": "adverse events considered possibly, probably, or definitely related to study drug", "setting": "[1]; 1.5 mg oral naloxone in divided doses", "value": "headache possibly related"}, {"measurement": "tolerability", "setting": "[1]; given alone, total doses of 0.5 mg IV and up to 1.5 mg orally", "value": "well tolerated"}, {"measurement": "adverse events during the naloxone challenge test", "setting": "[1]; intravenous challenge at screening, 18 subjects randomized", "value": "No adverse events were observed"}, {"measurement": "AUC0-∞, dose normalized", "setting": "Dose Normalized to 0.5 mg IV Naloxone HCl dose, 0.5 mg IV arm, 15 subjects", "value": "3051 (668)^a pg · h/ml"}, {"measurement": "Mean naloxone peak exposure", "setting": "[4]", "value": 8, "unit": "pg/mL"}, {"measurement": "naloxone peak exposure, range", "setting": "[4]", "value": "0 to 16.6", "unit": "pg/mL"}, {"measurement": "AUC(0-inf)", "setting": "clinical [2]; iv, 0.5 mg", "value": 3.05, "unit": "ng·h/mL"}, {"measurement": "clearance", "setting": "clinical [2]; iv, 0.5 mg", "value": 2850, "unit": "mL/min"}, {"measurement": "AUC(0-t)", "setting": "clinical [2]; iv, 0.5 mg, 0.5 mg IV naloxone HCl, fasted healthy subjects, arithmetic mean (SD)", "value": 3.2, "unit": "ng·h/mL"}, {"measurement": "Cmax", "setting": "clinical [2]; [5]", "value": 6.25, "unit": "ng/mL"}, {"measurement": "half-life", "setting": "clinical [2]; iv, 0.5 mg, t1/2, plasma naloxone, 0.5 mg IV naloxone HCl, 15 subjects, arithmetic mean (SD)", "value": 0.92, "unit": "h"}, {"measurement": "Tmax", "setting": "clinical [2]; [5]", "value": 0.14, "unit": "h"}, {"measurement": "AUC(0-t)", "setting": "clinical [2]; po, 1.5 mg, 1.5 mg naloxone HCl oral divided doses (0, 3, 6, 9 h), arithmetic mean (SD)", "value": 0.0649, "unit": "ng·h/mL"}, {"measurement": "AUC(0-t)", "setting": "clinical [2]; po, 1.5 mg, 1.5 mg naloxone HCl single oral dose (solution), 18 subjects, arithmetic mean (SD)", "value": 0.0474, "unit": "ng·h/mL"}, {"measurement": "Cmax", "setting": "clinical [2]; [6]", "value": 0.0134, "unit": "ng/mL"}, {"measurement": "Cmax", "setting": "clinical [2]; [7]", "value": 0.023, "unit": "ng/mL"}, {"measurement": "bioavailability", "setting": "clinical [2]; po, 1.5 mg, F (%) absolute bioavailability, 1.5 mg naloxone HCl oral divided doses, based on AUCt, mean (SD)", "value": 0.66, "unit": "%"}, {"measurement": "bioavailability", "setting": "clinical [2]; po, 1.5 mg, F (%) absolute bioavailability, 1.5 mg naloxone HCl single oral dose, based on AUCt, mean (SD)", "value": 0.47, "unit": "%"}, {"measurement": "Tmax", "setting": "clinical [2]; [6]", "value": 3.18, "unit": "h"}, {"measurement": "Tmax", "setting": "clinical [2]; [7]", "value": 0.78, "unit": "h"}, {"measurement": "bioavailability", "setting": "clinical [2]; po, absolute bioavailability of naloxone, all three oral treatments studied", "value": "< 1", "unit": "%"}, {"measurement": "Cmax", "setting": "clinical [3]", "value": "0.00213 ± 0.00447", "unit": "ng/mL"}, {"measurement": "Tmax", "setting": "clinical [3]", "value": "3.35 ± 3.69", "unit": "h"}, {"measurement": "half-life", "setting": "clinical [3]", "value": "4.3 ± 3.03", "unit": "h"}]}
